Results on five molecules are retold here after PMC4582818, “Identification of novel metabolic interactions controlling carbon flux from xylose to ethanol in natural and recombinant yeasts” (Biotechnology for Biofuels, 2015).

Data set [1] has as its target T1, CtXR (Yamadazyma tenuis, UniProt O74237).
T1 construct: gene XYL1; xylose reductase of C. tenuis CBS4435; preparation described only in Additional file 3
T1 sequence (O74237 1-322): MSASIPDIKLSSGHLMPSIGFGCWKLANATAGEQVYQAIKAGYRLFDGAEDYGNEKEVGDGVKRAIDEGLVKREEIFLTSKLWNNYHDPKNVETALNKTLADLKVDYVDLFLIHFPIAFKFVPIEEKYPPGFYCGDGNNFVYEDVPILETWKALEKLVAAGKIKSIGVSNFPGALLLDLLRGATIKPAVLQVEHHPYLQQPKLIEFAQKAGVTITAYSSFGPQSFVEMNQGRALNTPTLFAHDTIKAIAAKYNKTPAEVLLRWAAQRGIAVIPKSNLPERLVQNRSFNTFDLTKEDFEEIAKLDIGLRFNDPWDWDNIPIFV
The experiment in a line: steady-state kinetics. The data set is classed as biochemical. The text has this:
(§1) steady-state kinetics on CtXR

The target of a further data set is T2, CtG6PDH (Yamadazyma tenuis, UniProt G3B8L7).
T2 construct: gene CANTEDRAFT_115211; native enzyme, probably in cell-free extract of CBS4435 (details only in Additional file 3)
T2 sequence (G3B8L7 1-502): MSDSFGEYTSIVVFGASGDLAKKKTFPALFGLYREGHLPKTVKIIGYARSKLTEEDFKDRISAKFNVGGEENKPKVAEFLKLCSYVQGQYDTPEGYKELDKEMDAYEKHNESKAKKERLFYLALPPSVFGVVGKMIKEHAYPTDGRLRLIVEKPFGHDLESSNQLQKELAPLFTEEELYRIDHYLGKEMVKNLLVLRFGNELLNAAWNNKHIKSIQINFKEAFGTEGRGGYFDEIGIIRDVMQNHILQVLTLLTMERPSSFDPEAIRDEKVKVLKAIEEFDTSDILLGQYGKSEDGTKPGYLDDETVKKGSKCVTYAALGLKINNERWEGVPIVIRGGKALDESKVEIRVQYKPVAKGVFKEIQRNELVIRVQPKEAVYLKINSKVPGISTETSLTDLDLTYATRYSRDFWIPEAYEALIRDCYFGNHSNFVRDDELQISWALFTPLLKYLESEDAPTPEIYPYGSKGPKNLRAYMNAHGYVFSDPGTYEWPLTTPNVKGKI
Nature of the data set: enzyme kinetics, product inhibition. The data set is classed as cell-based. The settings on record: competitive product inhibition; read-out: K i,NADPH. An excerpt: enzyme kinetics, product inhibition on CtG6PDH

The target in data set [2] is T1, CtXR. Nature of the data set: ligand-binding analysis by fluorescence spectroscopy. Particulars: read-out: NADP(H) (R 2) / PP (R 5), UG (R 9), LG (R 10). The text has this: ligand-binding analysis by fluorescence spectroscopy on CtXR
Substrate in data set [3]: NC(=O)C1=CN([C@@H]2O[C@H](COP(=O)(O)OP(=O)(O)OC[C@H]3O[C@@H](n4cnc5c(N)ncnc54)[C@H](OP(=O)(O)O)[C@@H]3O)[C@@H](O)[C@H]2O)C=CC1
Nature of the data set: steady-state kinetics. The class given is biochemical, Yamadazyma tenuis. The settings on record: xylose reduction; pH 7.5; 25.0 °C; varied: cofactor.
From the text: as §1

Substrate in data set [4]: NC(=O)c1ccc[n+]([C@@H]2O[C@H](COP(=O)(O)OP(=O)(O)OC[C@H]3O[C@@H](n4cnc5c(N)ncnc54)[C@H](OP(=O)(O)O)[C@@H]3O)[C@@H](O)[C@H]2O)c1
Nature of the data set: steady-state kinetics. The settings on record: xylitol oxidation; pH 7.5; 25.0 °C; varied: cofactor. The class given is biochemical, Yamadazyma tenuis.
From the text: as §1

Substrate in data set [5]: NC(=O)C1=CN([C@@H]2O[C@H](COP(=O)(O)OP(=O)(O)OC[C@H]3O[C@@H](n4cnc5c(N)ncnc54)[C@H](O)[C@@H]3O)[C@@H](O)[C@H]2O)C=CC1
Nature of the data set: steady-state kinetics. The data set is classed as biochemical, Yamadazyma tenuis. Particulars: xylose reduction; pH 7.5; 25.0 °C; varied: cofactor.
From the text: as §1

Substrate in data set [6]: NC(=O)c1ccc[n+]([C@@H]2O[C@H](COP(=O)(O)OP(=O)(O)OC[C@H]3O[C@@H](n4cnc5c(N)ncnc54)[C@H](O)[C@@H]3O)[C@@H](O)[C@H]2O)c1
The experiment in a line: steady-state kinetics. The data set is classed as biochemical, Yamadazyma tenuis. Particulars: xylitol oxidation; pH 7.5; 25.0 °C; varied: cofactor.
From the text: as §1

In the case of `NC(=O)C1=CN([C@@H]2O[C@H](COP(=O)(O)OP(=O)(O)OC[C@H]3O[C@@H](n4cnc5c(N)ncnc54)[C@H](O)[C@@H]3O)[C@@H](O)[C@H]2O)C=CC1` [NADH], the “NAD(H) (R 1)” value at CtXR [1] (dissociation constant of NADH in the rate equation, xylose reduction) was determined as 0.18 ± 0.04 mM. Regarding `NC(=O)C1=CN([C@@H]2O[C@H](COP(=O)(O)OP(=O)(O)OC[C@H]3O[C@@H](n4cnc5c(N)ncnc54)[C@H](OP(=O)(O)O)[C@@H]3O)[C@@H](O)[C@H]2O)C=CC1` [NADPH], the Ki on CtG6PDH came out at 200 µM. In the case of `NC(=O)c1ccc[n+]([C@@H]2O[C@H](COP(=O)(O)OP(=O)(O)OC[C@H]3O[C@@H](n4cnc5c(N)ncnc54)[C@H](OP(=O)(O)O)[C@@H]3O)[C@@H](O)[C@H]2O)c1` [NADP^+], on CtXR [2], the Kd turned out to be 5.9 ± 0.4 µM. Regarding `NC(=O)c1ccc[n+]([C@@H]2O[C@H](COP(=O)(O)OP(=O)(O)OC[C@H]3O[C@@H](n4cnc5c(N)ncnc54)[C@H](O)[C@@H]3O)[C@@H](O)[C@H]2O)c1` [NAD^+], the Ki at CtXR [1] (read-out: NAD(H) (R 1)) was 344 ± 30 µM.

B1: CtXR (Yamadazyma tenuis) (protein)
chain: MSASIPDIKLSSGHLMPSIGFGCWKLANATAGEQVYQAIKAGYRLFDGAEDYGNEKEVGDGVKRAIDEGLVKREEIFLTSKLWNNYHDPKNVETALNKTLADLKVDYVDLFLIHFPIAFKFVPIEEKYPPGFYCGDGNNFVYEDVPILETWKALEKLVAAGKIKSIGVSNFPGALLLDLLRGATIKPAVLQVEHHPYLQQPKLIEFAQKAGVTITAYSSFGPQSFVEMNQGRALNTPTLFAHDTIKAIAAKYNKTPAEVLLRWAAQRGIAVIPKSNLPERLVQNRSFNTFDLTKEDFEEIAKLDIGLRFNDPWDWDNIPIFV
notes: xylose reductase of C. tenuis CBS4435; preparation described only in Additional file 3
The Km is the substrate concentration at which the rate is half of its maximum. Take B1: the Km in “steady-state kinetics [3]” was determined as 5 ± 2 µM; in “steady-state kinetics [4]”, 8 ± 1 µM; in “steady-state kinetics [5]” it was 40 ± 10 µM; in the data set “steady-state kinetics [6]”, 19 ± 5 µM.
